Data from PMC6128713 (Saudi Pharmaceutical Journal : SPJ, 2018).
Where two headings read alike, the source gives them in different places.

How the values were obtained:
[1] = system: glutamate-induced 45Ca2+ uptake into synaptosomes of rat brain cortex; assay: Effect on glutamate-induced 45Ca2+ uptake into synaptosomes of rat brain cortex; format: biochemical, Wistar rats; conditions: for Percentage 45Ca2+ of Control (Control – 100%): 200 μM glutamate, 5 min, 37 °C; for overall inhibiting activity on calcium ion uptake, in words: whole concentration range 0.01–100 μM
[2] = format: physicochemical

## Cc1ccc2c(c1)c1c(n2CCc2n[nH]c(=S)n2C)CCN(C)C1 [Compound II, 5-[2-(2,8-Dimethyl-1,2,3,4-tetrahydropyrido[4,3-b]indol-5-yl)ethyl]-4-methyl-2,4-dihydro [1,2,4] triazole-3-thione]
[1]; compound 0.01 μM
  Percentage 45Ca2+ of Control (Control – 100%): 84.7 ± 1.2%
[1]; compound 0.1 μM
  Percentage 45Ca2+ of Control (Control – 100%): 85.5 ± 3.9%
[1]; compound 0.5 μM
  Percentage 45Ca2+ of Control (Control – 100%): 102.6 ± 3.6%
[1]; compound 1 μM
  Percentage 45Ca2+ of Control (Control – 100%): 93.6 ± 3.6%
[1]; compound 5 μM
  Percentage 45Ca2+ of Control (Control – 100%): 113.1 ± 7.6%
[1]; compound 10 μM
  Percentage 45Ca2+ of Control (Control – 100%): 109.7 ± 7.5%
[1]; compound 50 μM
  Percentage 45Ca2+ of Control (Control – 100%): 118.6 ± 2.7%
[1]; compound 100 μM
  Percentage 45Ca2+ of Control (Control – 100%): 127.1 ± 17.1%
[1]; concentration of 0.01–0.1 μM
  inhibition of glutamate-induced uptake of calcium ions: ~15%
[1]
  overall inhibiting activity on calcium ion uptake, in words: potentiates the uptake at high concentrations
[2]; 1-octanol, 293.15 K
  mole fraction solubility (x): 0.89 x · 10^4
[2]; 1-octanol, 293.15–313.15 K
  A, parameter of the correlation equation lnx=A-B/T: 3.95 ± 0.23
  B, parameter of the correlation equation lnx=A-B/T: 3889 ± 69
[2]; 1-octanol, 298.15 K
  mole fraction solubility (x): 1.13 x · 10^4
  ΔGsol0, standard molar dissolution Gibbs energy: 5.38 kcal/mol
  ΔHsol0, standard molar dissolution enthalpy: 7.72 kcal/mol
  ΔSsol0, standard molar dissolution entropy: 32.9 J/mol⋅K
[2]; 1-octanol, 303.15 K
  mole fraction solubility (x): 1.39 x · 10^4
[2]; 1-octanol, 308.15 K
  mole fraction solubility (x): 1.68 x · 10^4
[2]; 1-octanol, 313.15 K
  mole fraction solubility (x): 2.11 x · 10^4
[2]; Buffer pH 7.4, 293.15 K
  mole fraction solubility (x): 1.64 x · 10^6
[2]; Buffer pH 7.4, 293.15–313.15 K
  A, parameter of the correlation equation lnx=A-B/T: −2.90 ± 0.22
  B, parameter of the correlation equation lnx=A-B/T: 3054 ± 67
[2]; Buffer pH 7.4, 298.15 K
  mole fraction solubility (x): 1.96 x · 10^6
  ΔGsol0, standard molar dissolution Gibbs energy: 7.79 kcal/mol
  ΔHsol0, standard molar dissolution enthalpy: 6.07 kcal/mol
  ΔSsol0, standard molar dissolution entropy: -24.2 J/mol⋅K
[2]; Buffer pH 7.4, 303.15 K
  mole fraction solubility (x): 2.27 x · 10^6
[2]; Buffer pH 7.4, 308.15 K
  mole fraction solubility (x): 2.70 x · 10^6
[2]; Buffer pH 7.4, 313.15 K
  mole fraction solubility (x): 3.21 x · 10^6
[2]; Hexane, 293.15 K
  mole fraction solubility (x): 1.42 x · 10^5
[2]; Hexane, 293.15–313.15 K
  A, parameter of the correlation equation lnx=A-B/T: −1.39 ± 0.17
  B, parameter of the correlation equation lnx=A-B/T: 2989 ± 49
[2]; Hexane, 298.15 K
  mole fraction solubility (x): 1.70 x · 10^5
  ΔGsol0, standard molar dissolution Gibbs energy: 6.5 kcal/mol
  ΔHsol0, standard molar dissolution enthalpy: 5.95 kcal/mol
  ΔSsol0, standard molar dissolution entropy: -7.7 J/mol⋅K
[2]; Hexane, 303.15 K
  mole fraction solubility (x): 2.02 x · 10^5
[2]; Hexane, 308.15 K
  mole fraction solubility (x): 2.35 x · 10^5
[2]; Hexane, 313.15 K
  mole fraction solubility (x): 2.72 x · 10^5

## CN1CCc2c(c3cc(F)ccc3n2CCc2n[nH]c(=S)n2C)C1 [Compound IV, 5-[2-(8-Fluoro-2-methyl-1,2,3,4-tetrahydropyrido[4,3-b]indol-5-yl)ethyl]-4-methyl-2,4-dihydro[1,2,4]triazole-3-thione]
[1]; compound 0.01 μM
  Percentage 45Ca2+ of Control (Control – 100%): 102.0 ± 9.8%
[1]; compound 0.1 μM
  Percentage 45Ca2+ of Control (Control – 100%): 78.7 ± 10.3%
[1]; compound 0.5 μM
  Percentage 45Ca2+ of Control (Control – 100%): 78.7 ± 8.0%
[1]; compound 1 μM
  Percentage 45Ca2+ of Control (Control – 100%): 83.2 ± 10.9%
[1]; compound 5 μM
  Percentage 45Ca2+ of Control (Control – 100%): 94.7 ± 8.5%
[1]; compound 10 μM
  Percentage 45Ca2+ of Control (Control – 100%): 93.4 ± 6.9%
[1]; compound 50 μM
  Percentage 45Ca2+ of Control (Control – 100%): 96.9 ± 6.0%
[1]; compound 100 μM
  Percentage 45Ca2+ of Control (Control – 100%): 87.1 ± 11.5%
[1]; concentration of 1 μM
  inhibition of glutamate-induced calcium ion uptake: ~17%
[1]; concentration of 0.1–1 μM
  effect on glutamate-induced calcium ion uptake, in words: can act as an inhibitor
[1]; concentration of 5–100 μM
  effect on glutamate-induced calcium ion uptake, in words: had no effect
[1]
  overall inhibiting activity on calcium ion uptake, in words: weak inhibitors of calcium ion uptake
[2]; 1-octanol, 293.15 K
  mole fraction solubility (x): 2.51 x · 10^4
[2]; 1-octanol, 293.15–313.15 K
  A, parameter of the correlation equation lnx=A-B/T: 3.65 ± 0.15
  B, parameter of the correlation equation lnx=A-B/T: 3501 ± 46
[2]; 1-octanol, 298.15 K
  mole fraction solubility (x): 3.01 x · 10^4
  ΔGsol0, standard molar dissolution Gibbs energy: 4.8 kcal/mol
  ΔHsol0, standard molar dissolution enthalpy: 6.96 kcal/mol
  ΔSsol0, standard molar dissolution entropy: 30.2 J/mol⋅K
[2]; 1-octanol, 303.15 K
  mole fraction solubility (x): 3.68 x · 10^4
[2]; 1-octanol, 308.15 K
  mole fraction solubility (x): 4.39 x · 10^4
[2]; 1-octanol, 313.15 K
  mole fraction solubility (x): 5.30 x · 10^4
[2]; Buffer pH 7.4, 293.15 K
  mole fraction solubility (x): 8.34 x · 10^6
[2]; Buffer pH 7.4, 293.15–313.15 K
  A, parameter of the correlation equation lnx=A-B/T: −2.96 ± 0.09
  B, parameter of the correlation equation lnx=A-B/T: 2558 ± 27
[2]; Buffer pH 7.4, 298.15 K
  mole fraction solubility (x): 9.60 x · 10^6
  ΔGsol0, standard molar dissolution Gibbs energy: 6.84 kcal/mol
  ΔHsol0, standard molar dissolution enthalpy: 5.09 kcal/mol
  ΔSsol0, standard molar dissolution entropy: -24.6 J/mol⋅K
[2]; Buffer pH 7.4, 303.15 K
  mole fraction solubility (x): 11.11 x · 10^6
[2]; Buffer pH 7.4, 308.15 K
  mole fraction solubility (x): 12.66 x · 10^6
[2]; Buffer pH 7.4, 313.15 K
  mole fraction solubility (x): 14.60 x · 10^6
[2]; Hexane, 293.15 K
  mole fraction solubility (x): 3.85 x · 10^4
[2]; Hexane, 293.15–313.15 K
  A, parameter of the correlation equation lnx=A-B/T: 1.09 ± 0.1
  B, parameter of the correlation equation lnx=A-B/T: 2624 ± 30
[2]; Hexane, 298.15 K
  mole fraction solubility (x): 4.47 x · 10^4
  ΔGsol0, standard molar dissolution Gibbs energy: 4.57 kcal/mol
  ΔHsol0, standard molar dissolution enthalpy: 5.21 kcal/mol
  ΔSsol0, standard molar dissolution entropy: 9.1 J/mol⋅K
[2]; Hexane, 303.15 K
  mole fraction solubility (x): 5.11 x · 10^4
[2]; Hexane, 308.15 K
  mole fraction solubility (x): 5.96 x · 10^4
[2]; Hexane, 313.15 K
  mole fraction solubility (x): 6.81 x · 10^4
